Test results taken from patent US9585864B2, “Anticancer formulation” (National Dong Hwa University, priority 2010, dated 2017).

Experiments:
[1] = system: JNK, AKT, ERK; assay: Western blot of signaling pathway phosphorylation in RG2 cells; type: cell-based, rat; settings: 100 μg/ml, treatment for 1 hour
Experimental: Finally, signaling pathways involved in z-Bdph-induced Nur77 gene expression were investigated. RG2 cells were treated with Bdph (100 μg/ml) for various time periods (0, 15, 30, 60, and 180 mins).

[2] = system: Nur77; assay: RT-PCR of orphan receptor Nur77 mRNA expression in RG2 cells; type: cell-based, rat; settings: IC50 concentration of z-Bdph, 0, 0.5, 1, 3 and 6 h
Experimental: To confirm the results of the oligodeoxynucleotide-based microarray analysis, expression of the orphan receptors NOR-1, Nurr1, and Nur77 was examined in z-Bdph-treated RG2 cells by RT-PCR.
RG2 cells were incubated with IC50 concentration of z-Bdph for various time periods (0, 0.5, 1, 3, and 6 h). After incubation, cells were collected and total RNA isolated. Expression of GADPH was used as an internal control.

[3] = system: Axl receptor tyrosine kinase (RTK); assay: RT-PCR and Western blot of Axl expression in GBM cells; type: cell-based
Experimental: Reverse transcriptase-polymerase chain reaction (RT-PCR) was used to examine the effect of z-Bdph on the gene expression profile in GBM cells to elucidate the possible mechanisms of z-Bdph's inhibition of malignant brain tumor.
Western Blot assays were also carried out to examine the Axl protein level of the GBM cells in the presence of z-Bdph.

[4] = system: DBTRG-05MG cells (human GBM); assay: Matrigel invasion chamber and PET membrane migration assay; type: cell-based; settings: 24 hours
Experimental: The invasion of DBTRG-05MG cells was examined using a BioCoat matrigel invasion chamber system (BD Bioscience, Bedford, Mass.). The BD matrigel Matrix is composed of laminin, collagen IV, nidogen/entrctin, and proteoglycan on polyethylene terephthalate (PET) membranes containing 8 μm pores. In the in vitro migration assay, low pore density PET track-etched membrane on Falcon culture insert (BD Bioscience) was applied. The membrane was placed between the upper and lower wells of a Matrigel chamber or Falcon culture inserts. The cells were first resuspended in PRMI 1640 containing 10% fetal bovine serum and seeded into the upper wells of the chamber (50,000 cells per well). After incubating for 24 hours at 37° C., the cells that invaded or migrated through the membrane were stained with Liu stain (Handsel Technologies, Inc., Taipei, Taiwan) and counted under a microscopy. Each experiment was repeated thrice.

[5] = system: Nur77 in DBTRG-05NG cells (human GBM cells); assay: Nur77 translocation by immunostaining, fluorescence microscopy; type: cell-based; settings: 100 μg/mL, 24 hours
Experimental: Whether translocation of Nur77 occurred in response to z-Bdph was examined. DBTRG-05NG cells (human GBM cells) were treated with Bdph (100 μg/mL) for 24 hours, then immunostained with anti-Nur77 antibody followed by corresponding Rhodamine-conjugated anti-IgG secondary antibody. Simultaneously, cells were stained with DAPI to display the nuclei. The fluorescent images were visualized with a fluorescence microscope.

## CCC/C=C1\OC(=O)c2ccccc21 [z-Bdph, (Z)-n-butylidenephthalide]
[1]
  phosphorylation of JNK, AKT, ERK: JNK, AKT, ERK were significantly phosphorylated
[2]
  mRNA expression of Nur77: induced in the cells in a time-dependent manner
[3]; RT-PCR
  mRNA expression of Axl receptor tyrosine kinase: down-regulated
[3]; Western blot
  Axl protein level: reduced
[4]; BioCoat matrigel invasion chamber
  invasion of DBTRG-05MG cells: inhibited migration and invasion of DBTRG-05MG cells in a dose dependent manner
[4]; PET track-etched membrane
  migration of DBTRG-05MG cells: inhibited migration and invasion of DBTRG-05MG cells in a dose dependent manner
[5]
  translocation of Nur77: Nur77 was translocated from the nucleus to the cytoplasm
